Assays:
DGKz = DGKz (Homo sapiens (Human), UniProt Q13574); test: DGK ADP-Glo Kinase Assay (DGKz); format: biochemical; settings: 5 nM DGKz, 15 uM ATP
Experimental: (§1) Luminescence was recorded using an Tecan SPARK microplate reader.

PBMC = test: Human PBMC IL-2 Assay; format: cell-based; settings: anti-CD3/CD28 antibody, IL-2 level
Experimental: PBMC (frozen) obtained from health donor were thawed in RPMI-1640 medium with 10% o FBS, incubated for 4 h at 37° C. In a 96-well plate, 200,000 PBMC cells in 160 uL were added to each assay well. Ten microliter compound solution (10 uM to 0.6 nM, 8 points with 4-fold dilution) were added to cells in each well and incubated for 60 minutes at 37° C. Then 30 uL anti-CD3/CD28 antibody (Catalog #10991, Stemcell) were added to cells and incubated overnight at 37° C. After the incubation, 16 uL supernatants were transferred into a new 384-well white assay plate for cytokine analysis. IL-2 level was quantified using Human IL-2 kit (Catalog #62HIL02PEG, Cisbio) as described in the manufacturer manual.
Activation at […] activity (EC50) was calculated with the equation: […]
(§2) X is log of compound concentration, Y is the IL-2 concentration, increasing as X increases.

DGKa = DGKa (Homo sapiens (Human), UniProt P23743); test: DGK ADP-Glo Kinase Assay (DGKa); format: biochemical; settings: 10 nM DGKa, 15 uM ATP
Experimental: as §1

Jurkat cells = test: Jurkat IL-2 Assay; format: cell-based; settings: Homo sapiens, anti-CD3/CD28 antibody, IL-2 level
Experimental: Jurkat cells (ATCC) were cultured in RPMI-1640 medium supplemented with 10% FBS. In a 96-well plate, 250,000 cells in 130 uL were added to each assay well. Ten microliter compound solution (5 uM to 2.3 nM, 8 points with 3-fold dilution) were added to cells in each well and incubated for 60 minutes at 37° C. Then 10 uL anti-CD3/CD28 antibody (Catalog #10991, Stemcell) were added and incubated overnight at 37° C. After the incubation, 16 uL supernatants were transferred into a new 384-well white assay plate for cytokine analysis. IL-2 was quantified using Human IL-2 kit (Catalog #62HIL02PEG, Cisbio) as described in the manufacturer manual.
as §2

Chain of DGKz (Q13574 whole entry): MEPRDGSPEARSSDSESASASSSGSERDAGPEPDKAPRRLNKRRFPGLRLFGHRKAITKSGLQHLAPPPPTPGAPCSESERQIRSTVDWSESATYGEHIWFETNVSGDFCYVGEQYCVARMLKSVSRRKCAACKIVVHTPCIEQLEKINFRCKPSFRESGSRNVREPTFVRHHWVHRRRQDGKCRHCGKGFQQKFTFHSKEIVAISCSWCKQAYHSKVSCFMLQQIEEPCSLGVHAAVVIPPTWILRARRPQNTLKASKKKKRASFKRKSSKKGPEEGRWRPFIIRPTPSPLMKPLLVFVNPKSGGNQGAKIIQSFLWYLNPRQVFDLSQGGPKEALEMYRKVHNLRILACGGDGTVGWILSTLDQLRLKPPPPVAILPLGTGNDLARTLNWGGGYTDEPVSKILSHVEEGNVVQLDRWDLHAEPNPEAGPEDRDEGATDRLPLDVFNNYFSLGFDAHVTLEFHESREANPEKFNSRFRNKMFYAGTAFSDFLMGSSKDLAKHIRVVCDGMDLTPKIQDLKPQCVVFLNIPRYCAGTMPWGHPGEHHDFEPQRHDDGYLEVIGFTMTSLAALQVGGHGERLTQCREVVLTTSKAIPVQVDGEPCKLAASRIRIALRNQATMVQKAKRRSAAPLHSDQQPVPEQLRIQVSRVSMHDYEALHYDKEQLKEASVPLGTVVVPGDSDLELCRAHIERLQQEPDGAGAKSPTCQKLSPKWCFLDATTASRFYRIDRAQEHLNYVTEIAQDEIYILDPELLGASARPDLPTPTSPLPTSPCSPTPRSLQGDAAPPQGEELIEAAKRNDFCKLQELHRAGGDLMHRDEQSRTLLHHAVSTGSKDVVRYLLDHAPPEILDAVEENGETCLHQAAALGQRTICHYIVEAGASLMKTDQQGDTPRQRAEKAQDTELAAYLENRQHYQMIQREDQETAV
Chain of DGKa (P23743 whole entry): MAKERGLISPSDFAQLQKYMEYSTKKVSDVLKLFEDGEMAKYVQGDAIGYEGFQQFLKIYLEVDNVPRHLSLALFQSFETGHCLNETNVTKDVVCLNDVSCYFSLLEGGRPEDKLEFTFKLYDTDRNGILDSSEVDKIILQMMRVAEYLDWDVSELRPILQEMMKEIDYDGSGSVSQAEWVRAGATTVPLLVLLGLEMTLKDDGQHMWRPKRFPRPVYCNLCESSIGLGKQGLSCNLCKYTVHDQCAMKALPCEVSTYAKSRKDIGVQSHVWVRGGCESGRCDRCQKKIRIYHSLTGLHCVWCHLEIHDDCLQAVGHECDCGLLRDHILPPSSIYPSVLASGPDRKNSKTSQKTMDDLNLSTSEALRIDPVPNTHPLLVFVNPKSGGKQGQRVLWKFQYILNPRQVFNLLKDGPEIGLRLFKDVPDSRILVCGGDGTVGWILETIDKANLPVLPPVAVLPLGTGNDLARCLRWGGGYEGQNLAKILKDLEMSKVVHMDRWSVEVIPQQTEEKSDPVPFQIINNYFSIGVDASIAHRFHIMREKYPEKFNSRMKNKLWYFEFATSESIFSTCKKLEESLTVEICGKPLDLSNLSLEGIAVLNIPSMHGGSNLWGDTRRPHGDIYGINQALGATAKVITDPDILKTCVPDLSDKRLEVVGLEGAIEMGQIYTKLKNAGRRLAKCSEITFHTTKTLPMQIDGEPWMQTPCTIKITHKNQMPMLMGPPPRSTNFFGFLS

| SMILES | IC50 (DGKz) | IC50 (DGKa) | EC50 (Jurkat cells) | EC50 (PBMC) |
| --- | --- | --- | --- | --- |
| CC[C@@H]1C[C@@H](Oc2ccc(OC(F)(F)F)cc2)CCN1c1nc(=O)n(C)c2ccc(C#N)nc12 (stereo in doubt) [Compound 19] | < 100 nM | > 1000 nM | – | 500 to 1000 nM |
| C[C@H]1CC2(CCN1c1nc(=O)n(C)c3ccc(C#N)nc13)CC(c1ccc(OC(F)(F)F)cc1)=NO2 (stereo partly drawn) [Compound 50] | – | – | < 500 nM | – |
| CC[C@@H]1CN(c2nc3nncn3c3ccc(C#N)nc23)[C@@H](C)CN1[C@@H](CC)c1ccc(SC(F)(F)F)cc1 (stereo in doubt) [Compound 66] | < 100 nM | < 100 nM | – | – |
| Cn1c(=O)nc(N2CCC3(CC2)CC(c2ccccc2C(F)(F)F)=NO3)c2nc(C#N)ccc21 [Compound 48] | – | – | – | > 1000 nM |
| Cn1c(=O)nc(N2CCC(Oc3ccc(OC(F)(F)F)cc3)CC2)c2nc(C#N)ccc21 [Compound 5] | 100 to 1000 nM | 100 to 1000 nM | – | 500 to 1000 nM |
| Cc1ccc2oc(C3(C)CCN(c4c(C#N)c(=O)n(C)c5ccc(C#N)nc45)CC3)nc2c1 [Compound 7] | – | – | – | < 500 nM |
| CC[C@H]1CN([C@@H](CC)c2ccc(S(F)(F)(F)(F)F)cc2)[C@H](CC)CN1c1nc(=O)n(C)c2ccc(C#N)nc12 [Compound 28] | < 100 nM | < 100 nM | – | – |
| CC[C@H]1CN([C@H](c2ccc(SC(F)(F)F)cc2)c2nc(C3CC3)no2)[C@H](CC)CN1c1nc(=O)n(C)c2ccc(C#N)nc12 (stereo in doubt) [Compound 70] | < 100 nM | < 100 nM | – | – |
| Cc1ccc2oc(C3CCN(c4nc(=O)n(C)c5ccc(C#N)nc45)CC3)nc2c1 [Compound 20] | > 1000 nM | > 1000 nM | – | – |
| Cc1ccc2oc(C3CCN(c4nc(=O)n(C)c5cc(O[C@H]6CCOC6)c(Cl)cc45)CC3)nc2c1 [Compound 33] | < 100 nM | < 100 nM | – | – |
| CC[C@@H]1CN(c2nc(=O)n(C)c3ccc(C#N)nc23)[C@@H](C)CN1C(c1ccc(S(F)(F)(F)(F)F)cc1)c1nc(C2CC2)no1 (stereo partly drawn) [Compound 65] | < 100 nM | < 100 nM | – | – |
| CC[C@H]1CN([C@H](CC)c2ccc(S(F)(F)(F)(F)F)cc2)[C@H](CC)CN1c1nc(=O)n(C)c2ccc(C#N)nc12 [Compound 29] | < 100 nM | < 100 nM | – | – |
| N#Cc1ccc2c(n1)c(N1CCC3(CC1)CC(c1ccc(C(F)(F)F)cc1)=NO3)nc1nncn12 [Compound 53] | 100 to 1000 nM | < 100 nM | – | – |
| Cn1c(=O)nc(N2CCC(Oc3ccc(OC(F)(F)F)cc3)CC2)c2c1ccc1nncn12 [Compound 21] | – | – | > 1000 nM | – |
| CC[C@H]1CN(C(c2ccc(S(F)(F)(F)(F)F)cc2)c2nc(C3CC3)no2)[C@H](CC)CN1c1nc(=O)n(C)c2ccc(C#N)nc12 (stereo partly drawn) [Compound 64] | < 100 nM | < 100 nM | – | – |
| CC[C@H]1CN([C@H]2CCCCc3cc(C(F)(F)F)ccc32)[C@H](CC)CN1c1nc(=O)n(C)c2ccc(C#N)nc12 [Compound 44] | 100 to 1000 nM | < 100 nM | – | – |
| CC[C@H]1CN([C@@H](CC)c2ccc(C(F)(F)F)cc2)[C@H](CC)CN1c1nc2nncn2c2ccc(C#N)nc12 (single isomer, unassigned) [Compound 34] | < 100 nM | < 100 nM | – | – |
| Cn1c(=O)nc(N2CCC3(CC2)COC(c2ccc(OC(F)(F)F)cc2)=N3)c2nc(Cl)ccc21 [Compound 37] | 100 to 1000 nM | < 100 nM | – | – |
| Cc1ccccc1-n1cc(C2CCN(c3nc(=O)n(C)c4ccc(C#N)nc34)CC2)cn1 [Compound 12] | > 1000 nM | > 1000 nM | – | – |
| CC[C@@H]1CN(c2nc(=O)n(C)c3ccc(C#N)nc23)[C@@H](C)CN1[C@H](c1ccc(F)cc1)c1ccc(SC(F)(F)F)cn1 [Compound 73] | < 100 nM | < 100 nM | – | – |
| Cn1c(=O)c(C(N)=O)c(N2CCC3(CCN(c4ccc(OC(F)(F)F)cc4)C3)CC2)c2nc(C#N)ccc21 [Compound 6] | 100 to 1000 nM | 100 to 1000 nM | – | > 1000 nM |
| CC[C@H]1CN([C@H](c2ccc(SC(F)(F)F)cc2)c2nc(C3CC3)cs2)[C@H](CC)CN1c1nc(=O)n(C)c2ccc(C#N)nc12 [Compound 57] | 100 to 1000 nM | < 100 nM | – | – |
| CC[C@H]1C[C@@H](Oc2ccc(OC(F)(F)F)cc2)CCN1c1nc(=O)n(C)c2ccc(C#N)nc12 [Compound 17] | 100 to 1000 nM | < 100 nM | – | < 500 nM |
| CC[C@H]1CN([C@H](CC)c2ccc(C(F)(F)F)cc2)[C@H](CC)CN1c1nc2nncn2c2ccc(C#N)nc12 (single isomer, unassigned) [Compound 35] | 100 to 1000 nM | < 100 nM | – | – |

Continued, in another order:

| IC50 (DGKz) | IC50 (DGKa) | EC50 (Jurkat cells) | SMILES | EC50 (PBMC) |
| --- | --- | --- | --- | --- |
| < 100 nM | < 100 nM | – | CC[C@H]1CN([C@@H](CC)c2ccc(C(F)(F)F)nc2)[C@H](CC)CN1c1nc2nncn2c2ccc(C#N)nc12 (stereo in doubt) [Compound 111] | – |
| < 100 nM | < 100 nM | – | CC[C@@H]1CN2c3c(c(=O)n(C)c4ccc(C#N)nc34)OC[C@@H]2CN1[C@H](CC)c1ccc(C(F)(F)F)cc1 [Compound 122] | – |
| < 100 nM | < 100 nM | – | CC[C@H]1CN(C(COC)c2ccc(S(F)(F)(F)(F)F)cc2)[C@H](CC)CN1c1nc(=O)n(C)c2ccc(C#N)nc12 (stereo partly drawn) [Compound 78] | – |
| 100 to 1000 nM | < 100 nM | – | CC[C@@H]1CN(c2nc3nncn3c3ccc(C#N)nc23)[C@@H](C)CN1[C@H](CC)c1ccc(S(F)(F)(F)(F)F)cc1 (stereo in doubt) [Compound 90] | – |
| < 100 nM | < 100 nM | – | CC[C@H]1CN([C@@H](CC)c2ccc(C(F)(F)F)cc2)[C@H](CC)CN1c1nc2nncn2c2ccc(C#N)nc12 (single isomer, unassigned) [Compound 109] | – |
| > 1000 nM | < 100 nM | – | CC[C@H]1C[C@]2(CCN1c1nc(=O)n(C)c3ccc(C#N)nc13)CC(c1ccc(OC(F)(F)F)cc1)=NO2 (stereo in doubt) [Compound 74] | – |
| 100 to 1000 nM | < 100 nM | – | CC[C@@H]1CN2c3c(c(=O)n(C)c4ccc(C#N)nc34)OC[C@@H]2CN1[C@@H](CC)c1ccc(SC(F)(F)F)cc1 [Compound 123] | – |
| < 100 nM | < 100 nM | – | CC[C@H]1CN([C@@H](CC)c2nc(C3CC3)no2)[C@H](CC)CN1c1nc2nncn2c2ccc(C#N)nc12 [Compound 119] | – |
| < 100 nM | < 100 nM | – | CC[C@H]1CN([C@@H](CC)c2ccc(OC)cc2F)[C@H](CC)CN1c1nc2nncn2c2ccc(C#N)nc12 (stereo in doubt) [Compound 115] | – |
| 100 to 1000 nM | < 100 nM | – | CC[C@H]1CN([C@H](CC)c2ccc(C(F)(F)F)nc2)[C@H](CC)CN1c1nc2nncn2c2ccc(C#N)nc12 (stereo in doubt) [Compound 112] | – |
| 100 to 1000 nM | < 100 nM | – | CC[C@H]1CN([C@H](CC)c2ccc(OC(F)(F)F)cc2)[C@H](CC)CN1c1nc2nncn2c2ccc(C#N)nc12 (stereo in doubt) [Compound 101] | – |
| 100 to 1000 nM | < 100 nM | – | CC[C@@H]1CN2c3c(c(=O)n(C)c4ccc(C#N)nc34)OC[C@H]2CN1[C@@H](CC)c1ccc(C(F)(F)F)cc1 [Compound 107] | – |
| < 100 nM | < 100 nM | – | CC[C@@H]1CN(c2nc3nncn3c3ccc(C#N)nc23)[C@@H](C)CN1[C@@H](CC)c1ccc(C(F)(F)F)cc1 (single isomer, unassigned) [Compound 81] | – |
| 100 to 1000 nM | < 100 nM | – | CC[C@@H]1CN(c2nc3nncn3c3ccc(C#N)nc23)[C@@H](CC)CN1C(=O)Nc1ccc(C(F)(F)F)cc1 [Compound 95] | – |
| 100 to 1000 nM | < 100 nM | – | CC[C@H]1CN([C@H](CC)c2nc(C3CC3)no2)[C@H](CC)CN1c1nc2nncn2c2ccc(C#N)nc12 [Compound 120] | – |
| 100 to 1000 nM | < 100 nM | – | CC[C@H]1CN([C@H]2CCCCc3cc(C(F)(F)F)ccc32)[C@H](CC)CN1c1nc2nncn2c2ccc(C#N)nc12 [Compound 113] | – |
| < 100 nM | < 100 nM | – | CC[C@H]1CN(C(CO)c2ccc(S(F)(F)(F)(F)F)cc2)[C@H](CC)CN1c1nc(=O)n(C)c2ccc(C#N)nc12 (stereo partly drawn) [Compound 77] | – |
| < 100 nM | < 100 nM | – | CC[C@H]1CN([C@@H]2CCCCc3cc(C(F)(F)F)ccc32)[C@H](CC)CN1c1nc2nncn2c2ccc(C#N)nc12 [Compound 114] | – |
| < 100 nM | < 100 nM | – | CC[C@H]1CN([C@@H](c2ccc(S(F)(F)(F)(F)F)cc2)c2nc(C3CC3)cs2)[C@H](CC)CN1c1nc(=O)n(C)c2ccc(C#N)nc12 [Compound 99] | – |
| 100 to 1000 nM | < 100 nM | – | CC[C@H]1C[C@@H](c2nc3cc(C)ccc3o2)CCN1c1nc(=O)n(C)c2cc(O[C@H]3CCOC3)c(Cl)cc12 [Compound 93] | – |
| < 100 nM | < 100 nM | – | CC[C@@H]1CN(c2nc3nncn3c3ccc(C#N)nc23)[C@@H](C)CN1[C@@H](CC)c1ccc(S(F)(F)(F)(F)F)cc1 (stereo in doubt) [Compound 80] | – |
